For one test, the system named is Kuramochi cells RB-WT. The test can be described thus: IncuCyte Kuramochi cell proliferation assay, RB-WT. Type of test: cell-based. The conditions noted are these: 72 hours, cell count. How it is done:
IncuCyte® assay was used to measure the effect of disclosed compounds on cell proliferation. Fluorescent microscopy images of cells were taken immediately after compound treatment and 72 hours later. Image analysis software was used to obtain cell counts as a function of compound concentration. Kuramochi cells labeled with mApple-H2B were seeded on 384-well assay-ready plates. Plates were placed in an IncuCyte® (Sartorius) and scanned at 0 and 72 hours. IncuCyte® software was used to count the number of fluorescent nuclei in each well. The fold change in cell count from 0 to 72 hours in wells treated with increasing compounds concentrations (10 pts, 1/2 log dilution, 20 µM top concentration) was normalized to DMSO control wells. The normalized cell counts were fit with dose response curves and a GI50 was calculated.

In the next test the target is CDK2/Cyclin E1 (Homo sapiens, UniProt P24941). The test can be described thus: ADP-Glo Luminescent Kinase Assay (CDK2/E1-37C). Type of test: biochemical. To be noted: 0.18 nM CDK2/Cyclin E1, 100 μM ATP, Histone H1, 37° C.; read-out: ADPGLO (CDK2/E1-37C): IC50. As for the experimental part:
Inhibition of CDK2/Cyclin E1 activity by the presence of small molecules was evaluated using ADP-Glo Luminescent Kinase Assay (Promega). Activated CDK2/Cyclin E1 was incubated with its substrate Histone H1 (SignalChem H10-54N) in the kinase reaction buffer (100 μM ATP, 50 mM HEPES pH 7.5, 10 mM MgCl2, 1 mM EDTA, 2 mM DTT, 0.01% Brij35, 0.5 mg/mL BSA). Luminescence was recorded with an Envision plate reader (PerkinElmer).
Dose titrations of inhibitors in 100% DMSO were combined with 0.36 nM CDK2/Cyclin E1 in reaction buffer. The mixtures were incubated for 60 minutes at 37° C. before the addition of ATP and Histone H1 substrate to initiate the kinase reaction. The final conditions were 0.18 nM CDK2/Cyclin E1, 100 μM ATP, and […] Histone H1. The reactions were incubated at 37° C. for 90 minutes before being stopped with the addition of ADP-Glo reagent. This mixture was incubated at room temperature for 60 minutes before Kinase Detection Solution is added to generate luminescence. The stopped reactions were analyzed on an Envision plate reader. The conversion ratios were normalized to yield % activity, plotted against compound concentration, and fit to a four-parameter equation to determine the IC50 for each compound.

As for `O=C(NS(=O)(=O)c1cccc(C2CCCCC2)c1)C1CN(C(=O)c2cnn(Cc3ccccc3)c2)CC12CN(C(=O)[C@H]1CC1(F)F)C2` (stereo partly drawn) [Compound I-1, 6-(1-benzyl-1H-pyrazole-4-carbonyl)-N-((3-cyclohexylphenyl)sulfonyl)-2-((R)-2,2-difluorocyclopropane-1-carbonyl)-2,6-diazaspiro[3.4]octane-8-carboxamide], the IC50 in the test with Kuramochi cells RB-WT is above 10 µM; at CDK2/Cyclin E1, 5 to 10 µM.

For the molecule `N#Cc1ccc(Cn2cc(C(=O)N3CC(CS(=O)(=O)Cc4cccc(-c5ccc(C(F)(F)F)cc5)n4)C4(C3)CN(C(=O)C3(C(F)(F)F)CC3)C4)cn2)cc1` (centres unmarked) [Compound I-2], the IC50 is above 10 µM with Kuramochi cells RB-WT and 5 to 10 µM at CDK2/Cyclin E1.

As to `O=C(c1cnc(O)cn1)N1CC(CS(=O)(=O)Cc2cccc(-c3ccc(C(F)(F)F)cc3)n2)C2(C1)CN(C(=O)[C@H]1CC1(F)F)C2` (stereo partly drawn) [Compound I-3, (2-((R)-2,2-difluorocyclopropane-1-carbonyl)-8-((((6-(4-(trifluoromethyl)phenyl)pyridin-2-yl)methyl)sulfonyl)methyl)-2,6-diazaspiro[3.4]octan-6-yl)(5-hydroxypyrazin-2-yl)methanone], the IC50 with Kuramochi cells RB-WT and on CDK2/Cyclin E1 was above 10 µM throughout.

On to `O=C(O)c1c(COC[C@@H]2CN(C(=O)c3cnn(Cc4ccc(F)cc4)c3)CC23CN(C(=O)C2(C(F)(F)F)CC2)C3)cccc1C1CCC(F)(F)CC1` [Compound I-51, (S)-2-(4,4-difluorocyclohexyl)-6-(((6-(1-(4-fluorobenzyl)-1H-pyrazole-4-carbonyl)-2-(1-(trifluoromethyl)cyclopropanecarbonyl)-2,6-diazaspiro[3.4]octan-8-yl)methoxy)methyl) benzoic acid], for which the IC50 is 5 to 10 µM in the test with Kuramochi cells RB-WT and at most 0.5 µM on CDK2/Cyclin E1.

Take `O=C(O)c1c(COCC2CN(C(=O)c3cnn(Cc4ccc(C(F)(F)F)cc4)c3)CC23CN(C(=O)C2(C(F)(F)F)CC2)C3)cccc1C1CCC(C(F)(F)F)CC1` (centres unmarked) [Compound I-52, 2-(((6-(1-(4-(trifluoromethyl)benzyl)-1H-pyrazole-4-carbonyl)-2-(1-(trifluoromethyl)cyclopropane-1-carbonyl)-2,6-diazaspiro[3.4]octan-8-yl)methoxy)methyl)-6-(4-(trifluoromethyl)cyclohexyl)benzoic acid]: the results for the IC50 with Kuramochi cells RB-WT and on CDK2/Cyclin E1 were above 10 µM and 5 to 10 µM, respectively.

For `O=C(NS(=O)(=O)c1cccc(C2CCOCC2)c1)C1CN(c2cc(F)cc3ncsc23)CC12CN(C(=O)C1(C(F)(F)F)CC1)C2` (centres unmarked) [Compound I-53, 6-(5-fluorobenzo[d]thiazol-7-yl)-N-((3-(tetrahydro-2H-pyran-4-yl)phenyl)sulfonyl)-2-(1-(trifluoromethyl)cyclopropane-1-carbonyl)-2,6-diazaspiro[3.4]octane-8-carboxamide], the IC50 in the test on Kuramochi cells RB-WT and at CDK2/Cyclin E1 was above 10 µM each time.

As to `CC1(C)C[C@@H]1C(=O)N1CC2(CN(C(=O)c3cnn(Cc4ccccc4C(=O)O)c3)C[C@H]2COCc2cccc(C3CCC(C(F)(F)F)CC3)n2)C1` (stereo partly drawn) [Compound I-54, 2-((4-((S)-2-((S)-2,2-dimethylcyclopropane-1-carbonyl)-8-(((6-(4-(trifluoromethyl)cyclohexyl)pyridin-2-yl)methoxy)methyl)-2,6-diazaspiro[3.4]octane-6-carbonyl)-1H-pyrazol-1-yl)methyl)benzoic acid], the IC50 is above 10 µM in the test with Kuramochi cells RB-WT and at most 0.5 µM on CDK2/Cyclin E1.

For `COC(=O)c1c(O)cc(COCC2CN(C(=O)c3cnn(Cc4ccc(C(F)(F)F)cc4)c3)CC23CN(C(=O)C2(C(F)(F)F)CC2)C3)cc1-c1ccc(C(F)(F)F)cc1` (centres unmarked) [Compound I-55, methyl 3-hydroxy-4′-(trifluoromethyl)-5-(((6-(1-(4-(trifluoromethyl)benzyl)-1H-pyrazole-4-carbonyl)-2-(1-(trifluoromethyl)cyclopropane-1-carbonyl)-2,6-diazaspiro[3.4]octan-8-yl)methoxy)methyl)-[1,1′-biphenyl]-2-carboxylate], the figures for the IC50 with Kuramochi cells RB-WT and on CDK2/Cyclin E1 were 5 to 10 µM and above 10 µM, respectively.

Turning to `CC1(C)C[C@@H]1C(=O)N1CC2(CN(C(=O)c3cncs3)CC2COCC(=O)N2CCC(c3ccc(C(=O)O)cc3OC3CCCCC3)CC2)C1` (stereo partly drawn) [Compound I-56, 3-(cyclohexyloxy)-4-(1-(2-((2-((S)-2,2-dimethylcyclopropane-1-carbonyl)-6-(thiazole-5-carbonyl)-2,6-diazaspiro[3.4]octan-8-yl)methoxy)acetyl)piperidin-4-yl)benzoic acid], the IC50 in the test on Kuramochi cells RB-WT was above 10 µM; at CDK2/Cyclin E1, 5 to 10 µM.

As for `CC(C)(C)OC(=O)c1c(COCC2CN(c3cc(F)cc4ncsc34)CC23CN(C(=O)C2(C(F)(F)F)CC2)C3)cccc1C1CCC(C(F)(F)F)CC1` (centres unmarked) [Compound I-57, tert-butyl 2-(((6-(5-fluorobenzo[d]thiazol-7-yl)-2-(1-(trifluoromethyl)cyclopropane-1-carbonyl)-2,6-diazaspiro[3.4]octan-8-yl)methoxy)methyl)-6-(4-(trifluoromethyl)cyclohexyl)benzoate], the IC50 with Kuramochi cells RB-WT and at CDK2/Cyclin E1 was above 10 µM each time.

On to `O=C(NS(=O)(=O)c1cccc(C2CCOCC2)c1)[C@@H]1CN(C(=O)c2cnn(Cc3ccc(C(F)(F)F)cc3)c2)CC12CN(C(=O)C1(C(F)(F)F)CC1)C2` [Compound I-58, (S)—N-((3-(tetrahydro-2H-pyran-4-yl)phenyl)sulfonyl)-6-(1-(4-(trifluoromethyl)benzyl)-1H-pyrazole-4-carbonyl)-2-(1-(trifluoromethyl)cyclopropane-1-carbonyl)-2,6-diazaspiro[3.4]octane-8-carboxamide], for which the IC50 in the test with Kuramochi cells RB-WT and on CDK2/Cyclin E1 was above 10 µM throughout.

In the case of `N#Cc1ccc(Cn2cc(C(=O)N3CC(C(=O)NS(=O)(=O)c4cccc(C5(C(F)(F)F)CC5)c4)C4(C3)CN(C(=O)C3(C(F)(F)F)CC3)C4)cn2)cc1` (centres unmarked) [Compound I-59, 6-(1-(4-cyanobenzyl)-1H-pyrazole-4-carbonyl)-2-(1-(trifluoromethyl)cyclopropane-1-carbonyl)-N-((3-(1-(trifluoromethyl)cyclopropyl)phenyl)sulfonyl)-2,6-diazaspiro[3.4]octane-8-carboxamide], the IC50 in the test with Kuramochi cells RB-WT and at CDK2/Cyclin E1 was above 10 µM throughout.

On to `CC(C)(C(=O)N1CC2(CN(C(=O)c3cnn(Cc4ccc(F)cc4)c3)C[C@H]2COCc2ccccc2C(=O)O)C1)C(F)(F)F` [I′-11], for which the IC50 on CDK2/Cyclin E1 is above 10 µM.

In the case of `CC(C)(C(=O)N1CC2(CN(C(=O)c3cnn(Cc4ccc(F)cc4)c3)C[C@H]2COCc2cccc(C3=CCCC3)c2C(=O)O)C1)C(F)(F)F` [I′-12], the IC50 on CDK2/Cyclin E1 is at most 0.5 µM.

Turning to `CC(C)(C(=O)N1CC2(CN(C(=O)c3cnn(Cc4ccc(F)cc4)c3)C[C@H]2COCc2c(F)ccc(C3CCC(F)(F)CC3)c2C(=O)O)C1)C(F)(F)F` [I′-13], at CDK2/Cyclin E1, the IC50 is at most 0.5 µM.

`CC(C)(C(=O)N1CC2(C1)CN(c1cc(F)c(F)c3ncsc13)C[C@H]2COCc1c(F)ccc(C2CCC(F)(F)CC2)c1C(=O)O)C(F)(F)F` [I′-14, (S)-2-(((6-(4,5-difluorobenzo[d]thiazol-7-yl)-2-(3,3,3-trifluoro-2,2-dimethylpropanoyl)-2,6-diazaspiro[3.4]octan-8-yl)methoxy)methyl)-6-(4,4-difluorocyclohexyl)-3-fluorobenzoic acid]: at CDK2/Cyclin E1, the IC50 is at most 0.5 µM.

In the case of `O=C(O)c1c(COC[C@@H]2CN(C(=O)c3cnn(Cc4ccc(F)cc4)c3)CC23CN(C(=O)C2CCOCC2)C3)cccc1C1CCC(F)(F)CC1` [I′-15], the IC50 on CDK2/Cyclin E1 fell in the range of 0.5 to 5 µM.

For `CC(C)C(=O)N1CC2(CN(C(=O)c3cnn(Cc4ccc(F)cc4)c3)C[C@H]2COCc2cccc(C3CCC(F)(F)CC3)c2C(=O)O)C1` [I′-16, (S)-2-(4,4-difluorocyclohexyl)-6-(((6-(1-(4-fluorobenzyl)-1H-pyrazole-4-carbonyl)-2-isobutyryl-2,6-diazaspiro[3.4]octan-8-yl)methoxy)methyl)benzoic acid], the IC50 on CDK2/Cyclin E1 is at most 0.5 µM.

As to `O=C(O)c1c(COC[C@@H]2CN(C(=O)c3cnn(Cc4ccc(F)cc4)c3)CC23CN(C(=O)C24CC(C2)C4)C3)cccc1C1CCC(F)(F)CC1` [I′-17, (S)-2-(((2-(bicyclo[11.1.1]pentane-1-carbonyl)-6-(1-(4-fluorobenzyl)-1H-pyrazole-4-carbonyl)-2,6-diazaspiro[3.4]octan-8-yl)methoxy)methyl)-6-(4,4-difluorocyclohexyl)benzoic acid], the IC50 at CDK2/Cyclin E1 is at most 0.5 µM.

`CN(C)CCNC(=O)c1c(COC[C@@H]2CN(C(=O)c3cnn(Cc4ccc(F)cc4)c3)CC23CN(C(=O)C(C)(C)C(F)(F)F)C3)cccc1C1CCC(F)(F)CC1` [I′-18]: the IC50 on CDK2/Cyclin E1 is at most 0.5 µM.

The record behind these values is patent publication US20260034123A1 (Cedilla Therapeutics, Inc., priority 2022, published 2026).
